Values of other authors, collected in patent publication US6458923B1, “Modified position (7) bradykinin antagonist peptides” (Scios Inc., priority 1991, dated 2002).
No end group written: not given here.

How the values were obtained:
pulmonary kininase = settings: anesthetized rat; intra-aortic vs intravenous administration

## RPPGFSPFR [Bradykinin, Arg Pro Pro Gly Phe Ser Pro Phe Arg]
Pulmonary kininase
  destruction on a single passage through the pulmonary circulation: 98-99%
other
  half life in the systemic circulation: less than 30 seconds
